Here are results for twelve compounds from US10106519B2, “3-phenyl-7-hydroxy-isocoumarins as macrophage migration inhibitory factor (MIF) inhibitors” (The Provost, Fellows, Foundation Scholars, & the Other …, priority 2014, dated 2018).

In assay [1] the test system is LPS induced TNF-α production. As to the kind of experiment: Inhibition of LPS induced TNF-α production in RAW 264.7 macrophage cells (ELISA). It counts as cell-based, mouse. The protocol:
RAW 264.7 macrophage cells were plated at 1×10^5/ml in 450 μl of medium in a 48 well plate. 16 hours later cells were treated with ISO-1 or Tautomerase Inhibitors at a final concentration of 10, 50 or 100 μM for 30 minutes before stimulation with 100 ng/ml LPS. Supernatants were collected after 20 hours for determination of TNF-α levels. TNF-α levels were determined using a TNF-α specific ELISA (CAT # DY410 R&D Syst).
96 well plates were coated with 50 μl of Capture Antibody ([…]) in PBS and sealed and incubated overnight at 4° C. Plates were then washed three times in 0.05% PBS Tween and plates blotted. Plates were blocked by adding 150 μl of 1% BSA in PBS (Gibco—cat no. 14190-094) to each well and incubated at room temperature for 2 hours. Plates were washed again as previously described. 50 μl of sample or standard was added to each well and incubated for overnight at 4° C. Plates were then washed again as described. 50 μl of the detection Antibody (200 ng/ml) in 1% BSA in PBS was added to each well and incubated for 2 hours at room temperature. Plates were then washed again as described. 50 μl of working concentration of Streptavidin—HRP was added to each well and plates were covered and incubated for 20 minutes at room temperature. 50 μl of substrate solution (One OPD tablet and one urea hydrogen peroxide/buffer tablet were dissolved in 20 ml of water to yield a ready to use buffered solution, Sigma—cat no. 9187-50) was added to each well and incubated for 20 minutes at room temperature. 25 μl of 2N H2SO4 was added to each well to stop the reaction. The optical density of each well was then measured with a spectrophotometer at 450 nm.
Initially the panel of 25 novel potential tautomerase inhibitors was screened in an in-vitro system. In order to do this we exploited the fact that MIF is needed for optimal LPS induced TNF-α production. We therefore reasoned that our potential TIs should be able to inhibit LPS induced TNF-α in RAW macrophage murine cells. RAW macrophage murine cells were plated at 37° C. in a humidified 5% CO2 incubator. 16 hours later the cells were pre-treated with each of the inhibitors at concentration of 100, 50 or 10 μM for 30 minutes 100 ng/ml of LPS was then added to the cells and supernatants were collected after 16 hours and analysed for TNF-α production by ELISA.
A general note: An ELISA detects its analyte on a solid surface through an enzyme-linked reagent.

The test system of assay [2] is LPS induced TNF-α production. The conditions noted are these: RAW 264.7 cell line, previously shown; cited from earlier work.
For assay [3], the system named is circulating levels of TNF-α. The conditions noted are these: LPS induced model of murine sepsis; cited from earlier work.
A further assay has as its system PGE-2. The conditions noted are these: increasing concentrations; cited from earlier work.
The subject of a further assay is prostate cancer cells. Conditions: cited from earlier work.
Assay [4] concerns Lewis Lung carcinoma cells. The assay is described as follows: Subcutaneous LLC1 tumour model with in vivo tautomerase inhibitor treatment. Further details: species or system C57BL/6 mice. Conditions: 35 mg/kg intraperitoneally 30 min prior to inoculation and twice weekly, day 28 (FIG. 8). The protocol: Log phase cultures of LLC-1 cells were harvested by trypsinisation and washed three times with sterile phosphate buffered saline (PBS) and resuspended at a cell density of 5×10^5/ml in PBS. Animals were shaved with an electric shaver 24 hours before subcutaneous injection. 5×10^5 Lewis Lung cells were injected subcutaneously into the left flank of C57BL/6 mice of 6-8 weeks. Animals were monitored for the duration of the experiment and tumour measurements were recorded twice weekly with a digital callipers. Tumour volume (mm^3) was calculated as 0.5×L×W^2, where length is representative of the larger tumour diameter and the width represents the smaller tumour diameter. Animals are sacrificed when tumours reach a diameter of 15 mm or if tumours become ulcerated. Tumours are then removed along with the lungs, spleen and liver.
30 minutes prior to LLC-1 inoculation, inhibitors (TI 19/ISO-1) were administered at a concentration of 35 mg/kg in a volume of 100 μl 5% DMSO in sterile PBS. Control groups were given injections of vehicle 5% DMSO in sterile PBS or sterile PBS alone. Animals were treated twice weekly for four weeks.
In order to assess the antitumour activity of the novel tautomerase inhibitors in vivo, a subcutaneous LLC-1 cell model was set up. The subcutaneous model was chosen so that tumours could be easily visualised and measured during the course of the experiment and to allow assessment of the growth of the tumour in real time. Lewis Lung carcinoma cells (5×10^5) were injected sub-cutaneously into the left flank of C57BL/6 mice. Caliper measurements were taken twice weekly and tumour volume (mm^3) was calculated as 0.5×L×W^2. […] The cut off point for this model was when the tumour measured 15 mm in diameter. This model gave us an indication of normal tumour growth in this subcutaneous model. It can be seen from this model that from day 22 to day 28 the size of the tumour grows considerably.
Once it was determined that the enzymatic activity played a role in the growth of tumours, the subcutaneous LLC model was then used to assess the efficiency of the small weight molecular inhibitors. C57/B16 mice were injected intraperitoneally with 35 mg/kg of each of the inhibitors 30 minutes prior to subcutaneous tumour inoculation and again twice weekly for 4 weeks. Animals were monitored daily and tumour measurements taken until the tumour measured 15 mm in diameter.

Assay [5] deals with LPS mediated PGE-2 production. As to the kind of experiment: PGE-2 production in LPS treated RAW macrophage cells (ELISA). It counts as cell-based, murine. The conditions noted are these: 100 μM inhibitor, 100 ng/ml LPS (FIG. 4). The protocol:
Raw macrophage murine cells were plated at a cell density of 1×10^5 and pre-treated with 100 μM of each of the inhibitors […] for 30 minutes at 37° C. in a humidified 5% CO2 incubator. Raw macrophage cells were then treated with 100 ng/ml of LPS and supernatants were collected after 16 hours at 37° C. in a humidified 5% CO2 incubator and analysed for PGE-2 production. Levels of PGE-2 were measured by ELISA. (CAT # KGE004 R&D Syst).

Assay [6] relates to Lewis Lung carcinoma cells (LLC). The assay is described as follows: LLC-GLuc proliferation assay with rMIF. It counts as cell-based, mouse. Conditions: 100 μM inhibitor, 100 ng/ml rMIF, 48 hours (FIG. 5). The protocol: LLC-GLuc cells were plated in a 6 well plate at a density of 5×10^4 cells/ml in DMEM supplemented with P/S, 10% FCS and L-Glu. After overnight adherence, 100 ng/ml MIF was added along with the inhibitors or DMSO to a total of 1 ml serum free medium. Cells were harvested after 48 hours by trypsinisation and counted in a haemocytometer.
The ability of candidate compounds to reduce cellular proliferation was also examined. For this assay, LLC cells were plated at a cell density of 5×10^4 cells/ml. The cells were then pre-treated with TI 19 or ISO-1 at a concentration of 100 μM. The cells were then treated with 100 ng/ml of recombinant MIF. The cells were incubated at 37° C. in a humidified 5% CO2 incubator and after 48 hours the cells were harvested and counted.

A further assay addresses T1, MIF tautomerase (Homo sapiens, UniProt P14174).
T1 construct: host or cells: E. coli BL21
T1 sequence (P14174 2-115 limits assumed): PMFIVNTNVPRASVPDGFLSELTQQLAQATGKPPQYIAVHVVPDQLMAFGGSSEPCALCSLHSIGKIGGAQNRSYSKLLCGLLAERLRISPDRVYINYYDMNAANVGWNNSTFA
The assay is described as follows: MIF tautomerase inhibition assay. The class given is biochemical. Conditions: structure activity relationship studies (FIG. 10). The protocol: Human recombinant MIF was purified as per Bernhagen et al. (Biochemistry, 1994. 33(47): p. 14144-55). Briefly, BL21 E. coli cells expressing the pET11b-MIF construct were grown to an absorbance at 600 nm (OD) of […]. Isopropyl 1-thio-P-D-galactopyranoside (IPTG) (Sigma—cat no. 16758) was added to a final concentration of 1 mM to induce expression of the MIF gene and incubated for another 3 hours. Bacteria were then harvested by centrifugation and the cell pellets were then frozen. Protein purification was then out sourced to Scottish Biomedical, where the bacterial pellets were thawed and resuspended in 3 ml of Tris-buffered saline. The bacteria were then lysed by adding an equivalent number of glass beads and vortexing strongly for 10 minutes. Glass beads were removed by centrifugation at 1000 g for 10 minutes and the bacterial extract was centrifuged at 1000 g for a further 30 minutes. The supernatant was then sterile-filtered through a […] membrane filter and put through a MONO Q anion exchange chromatography column. MIF was eluted using Tris-buffered saline in the first flow-through fractions and pooled and placed on ice. These pooled fractions were then applied to a C8-SepPak reverse phase column. Unbound material was eluted by washing with water and 20% acetonitrile/water. MIF was then eluted using 6 column volumes of 60% acetonitrile/water. This sample was then renatured by dissolving MIF at a concentration of […] in 20 mM sodium phosphate buffer containing 8M urea and 5 mM DTT and dialysed against 20 mM sodium phosphate buffer. […]
L-dopachrome methyl ester was prepared at 2.4 mM through oxidation of L-3,4-dihydroxyphenylalanine methyl ester with sodium periodate. The solution was mixed well and placed at room temperature for 5 minutes before being placed on ice in the dark. 100 ng of rMIF was added to each of the Tautomerase Inhibitors or ISO-1 at a number of concentrations (1, 50 and 100 μM) with substrate. The decrease in absorbance was measured with a spectrophotometer at 475 nm every 10 seconds for 10 minutes.
The rate of the reaction of rMIF and substrate alone was measured over time at 475 nm. This was compared to the rate of this reaction with the addition of 100 μM of each of the inhibitors. Inhibition was calculated as the percentage in the reduction of the rate of change with the addition of the inhibitor averaged over five minutes.

Where [7] appears, read: comparative analysis, same assay.

Structures are written as SMILES. “Also recorded” adds a separate entry of the source. Where only a bound is given, the exact number is not on record here.

Turning to `COC(=O)CC1CC(c2ccc(O)cc2)=NO1` (stereo not shown) [ISO-1, reference compound], in [1] (100 μM inhibitor 30 minutes before 100 ng/ml LPS (FIG. 2A)), the “reduction of TNF-α production” value was determined as 20%. The “TNF-α production induced by LPS, in words” value in assay [2] was “inhibit TNF-α production induced by addition of LPS”. In [3], the “circulating levels of TNF-α, in words” value was “reduce circulating levels of TNF-α”. Further, the “production of PGE-2, in words” value in the assay with PGE-2 was “reduce the production of PGE-2 in a dose dependant manner”. In addition, the “cell proliferation, in words” value with prostate cancer cells is listed as “decreased cell proliferation in prostate cancer cells”. The “reduction in tumour growth / tumour size” value in assay [4] is listed as “over 50%”. The “reduction of LPS mediated PGE-2 production, in words” value in assay [5] is recorded as “significantly reduces”. Also, the “reduction of MIF induced proliferation, in words” value in [6] was “less so; also recorded: reduced the MIF induced proliferation”.
Turning to `Cc1ccccc1-c1cc2ccc(O)cc2c(=O)o1` [SDG-22, 3-(2′-methylphenyl)-7-hydroxyisocoumarin], in assay [1] (LPS stimulated RAW macrophage murine cells, 100 μM (FIG. 11)), the “reduction of TNF-α production, comparative analysis” value is recorded as 97%. In addition, in [1] (setting [7]), the “more effective than ISO-1 in reducing TNF-α production” value is 80% and the “more effective than TI 19 in reducing TNF-α production” value turned out to be 10%. Also, the “reduction of TNF-α production, in words” value in [1] (concentration not given) is listed as “significant reduction in TNF-α production”. Moreover, at MIF tautomerase, the “inhibition of MIF tautomerase activity, analogues of TI 19” value is over 90% and the “tautomerase inhibitory activity of analogues, in words” value is given as “very effective inhibitor of MIF tautomerase; also recorded: most effective tautomerase inhibitor identified to date; also recorded: significantly more potent than TI 19”.
Regarding `O=c1oc(-c2ccccc2O)cc2ccccc12` [SDG-50], the “tautomerase inhibitory activity of analogues, in words” value on MIF tautomerase was “dramatic loss in tautomerase inhibition activity”.
On to `Cc1ccccc1-c1cc2cc(O)c(O)cc2c(=O)o1` [SDG-54, 3-(2′-methylphenyl)-6,7-hydroxyisocoumarin], for which, at MIF tautomerase, the “inhibition of MIF tautomerase activity, analogues of TI 19” value is given as 86% and the “tautomerase inhibitory activity of analogues, in words” value is listed as “almost complete inhibition of MIF tautomerase activity”.
In the case of `COc1cc2cc(-c3ccccc3C)oc(=O)c2cc1OC` [SDG-53, 3-(2′-methylphenyl)-6,7-dimethoxyisocoumarin], at MIF tautomerase, the “tautomerase inhibitory activity of analogues, in words” value is “did not significantly inhibit MIF tautomerase”.
Turning to `Cc1ccccc1-c1cc2ccccc2c(=O)[nH]1` [SDG-42], the “tautomerase inhibitory activity of analogues, in words” value at MIF tautomerase is reported as “ineffective as a tautomerase inhibitor”.
On the same count and under the same terms, in the case of `COc1ccc2cc(-c3ccccc3C)oc(=O)c2c1` [SDG-23] it was “did not significantly inhibit MIF tautomerase”; in that of `Cc1cc2cc(-c3ccccc3C)oc(=O)c2cc1O` [SDG-52, 3-(2′-methylphenyl)-6-methyl-7-hydroxyisocoumarin], “some inhibitory activity”; in that of `Cc1cc2ccccc2c(=O)o1` [SDG-40], “dramatic loss of inhibitory activity”.
As to `Cc1cccc(-c2cc3ccc(O)cc3c(=O)o2)c1` [SDG-47, 3-(3′-methylphenyl)-7-hydroxyisocoumarin], the “tautomerase inhibitory activity of analogues, in words” value on MIF tautomerase is “almost complete inhibition of MIF tautomerase activity”.
Same read-out and setting: then `O=c1oc(-c2ccccc2)cc2ccccc12` [SDG-46], with “inactivity”.
On the same count and under the same terms, then `COc1cc2c(=O)oc(-c3ccccc3C)cc2cc1C` [SDG-51, 3-(2′-methylphenyl)-6-methyl-7-methoxyisocoumarin], with “did not significantly inhibit MIF tautomerase”.
